Results taken from patent US8530380B2 (priority 1997, dated 2013).

Test system: Phytophthora infestans
Type: in vivo
Settings: single active ingredient, 3.1 ppm in the spray liquor; tomato plants infected next day, evaluated after 6 days

Row | Structure (SMILES) | Efficacy in % of the untreated control
1 | COCC(=O)N(c1c(C)cccc1C)C(C)C(=O)OC (centres unmarked) [Compound IV.3, metalaxyl] | 0%
2 | O=C(Nc1ccccc1-c1ccc(F)cc1)c1cccnc1Cl [Compound I.1] | 0%
